Experimental data as given in US20230340530A1, “Methods of Protecting RNA” (Pfizer Inc., priority 2020, published 2023).

Biological target: RNA samples (Chi18 or HCV IRES)
Assay: Droplet Digital Polymerase Chain Reaction (ddPCR) assay of RNA protection
Assay type: biochemical
Details: 50 mM Tris buffer pH 11.4, 16 hrs at 30° C. for Chi18 or 42° C. for HCV; table does not say which RNA; 600 µM to 0.018 µM compound, 2% DMSO; read-out: EC50 Values Obtained from the ddPCR Assay
Description: The ddPCR assays measured RNA integrity by converting intact RNA to cDNA by reverse transcription, then performing digital PCR in thousands of nanoliter-sized droplets for each sample. PCR was performed within each droplet, which allowed for more sensitive detection of subtle changes in RNA concentration compared to traditional PCR or qPCR. Additionally, primers/probes specific to the 5′ end of the RNA/cDNA transcript(s) were used to assess fragment integrity, i.e. degraded RNA had fewer 5′ positive droplets. The BioRad QX200 Droplet Digital PCR System was used for the ddPCR workflow.
RNA samples (Chi18 or HCV IRES) were diluted to 100 fg/µL in 50 mM Tris buffer pH 11.4. Boron compounds were tested in a dose-response format to determine EC50. A compound dilution plate that contained a 30 mM top concentration of compound in DMSO was serially (half-log) diluted 10 times. A quantity of 0.12 µL of this compound dilution plate was spotted into a 96-well PCR plate (Thermo). Sample RNAs were added (6 µL) and incubated with test compounds as described below. Final compound concentrations ranged from 600 µM to 0.018 µM in 2% DMSO.
For the degradation reaction, treated RNAs were incubated for 16 hrs at 30° C. for Chi18 samples or 42° C. for HCV samples. Upon completion of the degradation reaction, cDNA was made and ddPCR run for each sample (96 well plates). Positive 5′ droplet values were divided by the total accepted droplet values for each sample and a ratio value generated for each sample.
Data was imported into a database where percent (%) protection and compound EC50 were calculated and curated. […] EC50 was determined by using a four parameter logistic equation: Y=A+((B-A)/(1+(C/X)D)); where Y is percent protection, X is compound concentration, A and B are minimum and maximum asymptotes, respectively, C is EC50, and D is Hill slope.

SMILES	EC50
CN1CCN(Cc2ccc(B(Oc3cccc4cccnc34)c3ccc(C#N)c(Cl)c3)cc2)CC1 [PF-06956831, quinolin-8-yl (3-chloro-4-cyanophenyl){4-[(4-methylpiperazin-1-yl)methyl]phenyl}borinate]	242 µM
CN1CCN(Cc2ccc([B@@-]3(c4ccc(C#N)cc4)Oc4cccc5ccc[n+]3c45)cc2Cl)CC1 [PF-06956838, {3-chloro-4-[(4-methylpiperazin-1-yl)methyl]phenyl}(4-cyanophenyl)(quinolin-8-olato-kappa-2-N,O)boron]	207 µM
O=C(OCc1cccc(B2OCc3cc(F)ccc32)c1)c1ccc2cccc(O)c2n1 [PF-06957137, [3-(5-fluoro-2,1-benzoxaborol-1 (3H)-yl)phenyl]methyl 8-hydroxyquinoline-2-carboxylate]	429 µM
CN1CCN(Cc2cccc(B(Oc3cccc4cccnc34)c3ccc(C#N)cc3)c2)CC1 [PF-06957315, quinolin-8-yl (4-cyanophenyl){3-[(4-methylpiperazin-1-yl)methyl]phenyl}borinate]	253 µM
O=C(Nc1ccc2c(c1)B(O)OC2)c1ccccc1 [PF-06957640, N-(1-hydroxy-1,3-dihydro-2,1-benzoxaborol-6-yl)benzamide]	266 µM
Cc1cc(Oc2ccnc(NCCN)n2)cc2c1C(CC(=O)O)OB2O (centres unmarked) [PF-06959336, 2-(6-((2-((2-aminoethyl)amino)pyrimidin-4-yl)oxy)-1-hydroxy-4-methyl-1,3-dihydrobenzo[c][1,2]oxabor ol-3-yl)acetic acid]	114 µM
O=C(O)C[C@@H]1OB(O)c2cccc(B(O)O)c21 [PF-06961361, [(3S)-4-borono-1-hydroxy-1,3-dihydro-2,1-benzoxaborol-3-yl]acetic acid]	226 µM
C[C@H]1c2ccc(NC(=O)c3ccc4c(c3)B(O)OC4(C)C)c(O)c2C(=O)C2=C(O)[C@]3(O)C(=O)C(C(N)=O)=C(O)[C@@H](N(C)C)[C@@H]3[C@@H](O)[C@@H]21 [PF-06968101, N-[(5R,5aR,6S,6aR,7S,10aS)-9-carbamoyl-7-(dimethylamino)-1,6,8,10a,11-pentahydroxy-5-methyl-10,12-dioxo-5,5a,6,6a,7,10,10a,12-octahydrotetracen-2-yl]-1-hydroxy-3,3-dimethyl-1,3-dihydro-2,1-benzoxaborole-6-carboxamide]	162 µM
C[C@H]1c2ccc(NC(=O)CNc3ccc4c(c3)B(O)OC4(C)C)c(O)c2C(=O)C2=C(O)[C@]3(O)C(=O)C(C(N)=O)=C(O)[C@@H](N(C)C)[C@@H]3[C@@H](O)[C@@H]21 [PF-06968306, (4S,4aR,5S,5aR,6R,12aS)-4-(dimethylamino)-3,5,10,12,12a-pentahydroxy-9-{[N-(1-hydroxy-3,3-dimethyl-1,3-dihydro-2,1-benzoxaborol-6-yl)glycyl]amino}-6-methyl-1,11-dioxo-1,4,4a,5,5a,6,11,12a-octahydrotet racene-2-carboxamide]	234 µM
C[C@H]1c2c(NC(=O)c3ccc4c(c3)B(O)OC4(C)C)ccc(O)c2C(=O)C2=C(O)[C@]3(O)C(=O)C(C(N)=O)=C(O)[C@@H](N(C)C)[C@@H]3[C@@H](O)[C@@H]21 [PF-06968370, N-[(6aS,10S,10aR,11S,11aR, 12R)-8-carbamoyl-10-(dimethylamino)-4,6,6a,9,11-pentahydroxy-12-methyl-5,7-dioxo-5,6a,7,10,10a,11,11a,12-octahydrotetracen-1-yl]-1-hydroxy-3,3-dimethyl-1,3-dihydro-2,1-benzox aborole-6-carboxamide]	258 µM
C[C@H]1c2ccc(NCC(=O)Nc3ccc4c(c3)B(O)OC4)c(O)c2C(=O)C2=C(O)[C@]3(O)C(=O)C(C(N)=O)=C(O)[C@@H](N(C)C)[C@@H]3[C@@H](O)[C@@H]21 [PF-06968419, (4S,4aR,5S,5aR,6R,12aS)-4-(dimethylamino)-3,5,10,12,12a-pentahydroxy-9-({2-[(1-hydroxy-1,3-dihydro-2,1-benzoxaborol-6-yl)amino]-2-oxoethyl}amino)-6-methyl-1,11-dioxo-1,4,4a,5,5a,6,11,12a-octahydrotetr acene-2-carboxamide]	75.1 µM
C[C@H]1c2ccc(NCCC(=O)Nc3cc4c5c(c3)OCCOB5OC4)c(O)c2C(=O)C2=C(O)[C@]3(O)C(=O)C(C(N)=O)=C(O)[C@@H](N(C)C)[C@@H]3[C@@H](O)[C@@H]21 [PF-06968542, (4S,4aR,5S,5aR,6R,12aS)-9-({3-[(2,3-dihydro-7H-[1,2]oxaborolo[4,3,2-jk][2,5,1]benzodioxaborepin-9-yl)amino]-3-oxopropyl}amino)-4-(dimethylamino)-3,5,10,12,12a-pentahydroxy-6-methyl-1,11-dioxo-1,4,4a,5,5a,6,11,12a-octahydrotetracene-2-carboxamide]	126 µM
COC(=O)c1cc(B2OC(C)(C)C(C)(C)O2)cc(C(=O)OC)n1 [PHA-00804319, dimethyl 4-(4,4,5,5-tetramethyl-1,3,2-dioxaborolan-2-yl)pyridine-2,6-dicarboxylate]	214 µM

Further lines, results first:

EC50	SMILES
286 µM	CN(C)c1cc(NC(=O)CCNC(=O)c2ccc3c(c2)COB3O)c(O)c2c1C[C@H]1C[C@H]3[C@H](N(C)C)C(O)=C(C(N)=O)C(=O)[C@@]3(O)C(O)=C1C2=O [PF-06967772, N-(3-{[(5aR,6aS,7S,10aS)-9-carbamoyl-4,7-bis(dimethylamino)-1,8,10a,11-tetrahydroxy-10,12-dioxo-5,5a,6,6a,7,10,10a,12-octahydrotetracen-2-yl]amino}-3-oxopropyl)-1-hydroxy-1,3-dihydro-2,1-benzoxaborole-5-carboxamide]
55.6 µM	CN(C)c1cc(NC(=O)c2ccc3c(c2)B(O)OC3(C)C)c(O)c2c1C[C@H]1C[C@H]3[C@H](N(C)C)C(O)=C(C(N)=O)C(=O)[C@@]3(O)C(O)=C1C2=O [PF-06967791, N-[(5aR,6aS,7S,1 OaS)-9-carbamoyl-4,7-bis(dimethylamino)-1,8,10a,11-tetrahydroxy-10,12-dioxo-5,5a,6,6a,7,10,10a,12-octahydrotetracen-2-yl]-1-hydroxy-3,3-dimethyl-1,3-dihydro-2,1-benzoxaborole-6-carboxamide]
393 µM	C[C@H]1c2ccc(NC(=O)c3ccc4c(c3)B(O)OC4)c(O)c2C(=O)C2=C(O)[C@]3(O)C(=O)C(C(N)=O)=C(O)[C@@H](N(C)C)[C@@H]3[C@@H](O)[C@@H]21 [PF-06968126, N-[(5R,5aR6S,6aR,7S,10aS)-9-carbamoyl-7-(dimethylamino)-1,6,8,10a,11-pentahydroxy-5-methyl-10,12-dioxo-5,5a,6,6a,7,10,10a,12-octahydrotetracen-2-yl]-1-hydroxy-1,3-dihydro-2,1-benzoxaborole-6-carboxamide]
166 µM	C[C@H]1c2ccc(NCCC(=O)Nc3ccc4c(c3)B(O)OCC4)c(O)c2C(=O)C2=C(O)[C@]3(O)C(=O)C(C(N)=O)=C(O)[C@@H](N(C)C)[C@@H]3[C@@H](O)[C@@H]21 [PF-06968237, (4S,4aR,5S,5aR,6R,12aS)-4-(dimethylamino)-3,5,10,12,12a-pentahydroxy-9-({3-[(1-hydroxy-3,4-dihydro-1H-2,1-benzoxaborinin-7-yl)amino]-3-oxopropyl}amino)-6-methyl-1,11-dioxo-1,4,4a,5,5a,6,11,12a-octahyd rotetracene-2-carboxamide]
75.7 µM	C[C@H]1c2ccc(NC(=O)CCC(=O)Nc3ccc4c(c3)B(O)OC4)c(O)c2C(=O)C2=C(O)[C@]3(O)C(=O)C(C(N)=O)=C(O)[C@@H](N(C)C)[C@@H]3[C@@H](O)[C@@H]21 [PF-06968256, N-1-[(5R,5aR,6S,6aR,7S,10aS)-9-carbamoyl-7-(dimethylamino)-1,6,8,10a,11-pentahydroxy-5-methyl-10,12-dioxo-5,5a,6,6a,7,10,10a,12-octahydrotetracen-2-yl]-N~4~-(1-hydroxy-1,3-dihydro-2,1-benzoxaborol-6-yl)butanediamide]
281 µM	C[C@H]1c2c(NC(=O)c3ccc4c(c3)B(O)OC4)ccc(O)c2C(=O)C2=C(O)[C@]3(O)C(=O)C(C(N)=O)=C(O)[C@@H](N(C)C)[C@@H]3[C@@H](O)[C@@H]21 [PF-06968384, N-[(6aS,10S,10aR,11S,11aR, 12R)-8-carbamoyl-10-(dimethylamino)-4,6,6a,9,11-pentahydroxy-12-methyl-5,7-dioxo-5,6a,7,10,10a,11,11a,12-octahydrotetracen-1-yl]-1-hydroxy-1,3-dihydro-2,1-benzoxaborole-6-car boxamide]
99.1 µM	C[C@H]1c2ccc(NCCC(=O)Nc3ccc4c(c3)OCCOB4O)c(O)c2C(=O)C2=C(O)[C@]3(O)C(=O)C(C(N)=O)=C(O)[C@@H](N(C)C)[C@@H]3[C@@H](O)[C@@H]21 [PF-06968559, (4S,4aR,5S,5aR,6R,12aS)-4-(dimethylamino)-3,5,10,12,12a-pentahydroxy-9-({3-[(1-hydroxy-3,4-dihydro-1H-2,5,1-benzodioxaborepin-7-yl)amino]-3-oxopropyl}amino)-8-methyl-1,11-dioxo-1,4,4a,5,5a,6,11,12a-oc tahydrotetracene-2-carboxamide]
